From patent US11142796B2, “MIR-18B for use as a marker of cancer progression and target for therapies to treat cancer” (SUTTER WEST BAY HOSPITALS, priority 2012, dated 2021)
“Also recorded” adds a separate entry of the source.

How the values were obtained:
miR-18b expression = miR-18b expression by miR qRT-PCR in drug-treated melanoma cells; assay type: cell-based, human
Source text: The DO4, WM3211, 1205-Lu, C8161.9, WM278 and Lox melanoma cell lines were obtained and propagated as described in Dar et al., J Biol Chem 286:16606-14 (2011). Normal human melanocytes (HEM) were purchased from Lifeline cell technology and grown in LL-0027 media (Lifeline cell technology, Walkersville Md.). Plasmids miRNASelect™ pEP-miR Null control vector (pEP Null), miRNASelect™ pEP-hsa-mir-18b expression vector (pEP miR-18b) (Cell Biolabs Inc, San Diego Calif.) were purchased. TaqMan probes for hsa-miR-18b and negative control pre-miR (cont. miR) were purchased from Applied Biosystems (Foster City, Calif.). Sub-confluent cells (60-70% confluent) were treated with 5-AZA-2′-deoxycytidine (5AZA) (Sigma Aldrich, St. Louis Mo.) dissolved in dimethyl-sulfoxide. Cells treated with vehicle served as control. Transient transfections were carried out by Lipofectamine-2000 (Invitrogen Life Technologies, Carlsbad, Calif.) following the manufacturer's protocol.
Mature miRNAs and other mRNAs were assayed using the TaqMan MicroRNA Assays and Gene Expression Assays (Applied Biosystems), respectively, as previously described in Dar et al., J Biol Chem 286:16606-14 (2011).

[1] = system: C8161.9 melanoma cell lines; assay: Cell survival, MDM2 and p53 expression in mutant p53 cells; assay type: cell-based, human; details: C8161.9 cells harboring mutant p53
Description: (§1) Cell viability, colony formation and flow cytometry analysis were performed as described previously in Dar et al., J Biol Chem 286:16606-14 (2011); and Dar et al., J Invest Dermatol 130:2071-9 (2010)).
(§2) Cell lysates were prepared in PBS containing 1×Halt protease inhibitor cocktail and 1×Halt phosphatase inhibitor cocktail (Pierce, Rockford, Ill.) centrifuged at 3500 r.p.m. for 10 min at 4° C. Proteins (10-15 ug) from each sample were subjected to SDS/polyacrylamide gel electrophoresis (PAGE) and transferred onto a nitrocellulose membrane. Target proteins were detected by using specific antibodies against MDM2, p53, p21, BCL-2 and GAPDH (Santa Cruz Biotechnology, Santa Cruz, Calif.), and PUMA, BCL-XL (Cell Signaling Technology, Danvers, Mass.).

LOX human melanoma cells [2] = assay: Cell cycle analysis, LOX; assay type: cell-based; details: LOX cells transfected with miR-18b
Description: as §1

1205-Lu cells [3] = assay: Subcutaneous tumor growth of 1205-Lu cells stably expressing miR-18b; assay type: in vivo, nude mice
Description: 1205-Lu cells were transfected with pEP Null or pEP miR-18b vectors (Cellbiolabs, San Diego Calif.) and selected with puromycin (1 μg/mL). For in-vivo studies as described previously in Dar et al., J Invest Dermatol 130:2071-9 (2010), 1×10^6 cells were injected into nude mice subcutaneously and tumor growth was followed for 24 days. All animal care was in accordance with the institutional guidelines.

1205-Lu melanoma cells [4] = assay: Invasion assay (matrigel-coated boyden chamber); assay type: cell-based, human; details: miR-18b over-expression; vs cont.miR
Description: (§3) For 1205-Lu cells boyden chamber inserts were coated with 15 μl matrigel at 6 mg/ml protein. For migration assay boyden chamber inserts were not coated and cells were directly added to them.

1205-Lu cells [5] = assay: Cell proliferation / viability, 1205-Lu; assay type: cell-based, human
Description: as §1

1205-Lu cells [6] = assay: Apoptosis assay, 1205-Lu; assay type: cell-based, human
Description: as §1

LOX human melanoma cells [7] = assay: Apoptosis assay, LOX; assay type: cell-based; details: LOX cells transfected with miR-18b
Description: as §1

1205-Lu cells [8] = assay: Cell cycle analysis (flow cytometry), 1205-Lu; assay type: cell-based, human
Description: as §1

[9] = system: MDM2 (and the p53 pathway); assay: Western blot analysis of MDM2 and p53 pathway proteins; assay type: cell-based, human
Description: as §2

[10] = system: E-cadherin, vimentin, N-cadherin and slug; assay: EMT markers by immunofluorescence and Western blot; assay type: cell-based, human; details: miR-18b overexpression in 1205-Lu
Description: as §2
1205-Lu cells were plated in 8-well plate chamber. Immunofluorescence assay was performed as previously described in Dar et al., Oncogene 28: 866-75 (2009). N-cadherin, vimentin, slug and E-cadherin antibodies (Cell signaling) were used in the assay.

1205-Lu cells [11] = assay: Colony formation assay, 1205-Lu; assay type: cell-based, human
Description: as §1

1205-Lu melanoma cells [12] = assay: Migration assay (boyden chamber); assay type: cell-based, human; details: miR-18b over-expression; vs cont.miR
Description: as §3

chromatin modifications = assay: Chromatin immunoprecipitation analysis after miR-18b overexpression; assay type: cell-based, human
Description: Chromatin immunoprecipitation analysis was performed using the EZ-ChIP kit (Upstate Biotechnology, Charlottesville, Va.) according to the manufacturer's directions and as described in Majid et al., Carcinogenesis 30: 662-70 (2009). Antibodies used in the immunoprecipitations were purchased from Upstate Biotechnology and Ambion (Austin, Tex.) and were specific for acetyl histone H3 (06-599), acetyl histone H4 (06-866), dimethyl-histone H3 lysine 4 (07-030), trimethyl-histone H3 lysine 4(07-473), dimethyl-histone H3 lysine 9 (07-441) and trimethyl-histone H3 lysine 9 (ab8898). The immunoprecipitated DNA was eluted in a total volume of 50 μl and 2 μl were used for PCR.

LOX human melanoma cells [13] = assay: Cell proliferation, LOX; assay type: cell-based; details: LOX cells transfected with miR-18b
Description: as §1

LOX human melanoma cells [14] = assay: Colony formation, LOX; assay type: cell-based; details: LOX cells transfected with miR-18b
Description: as §1

3′UTR of MDM2 = assay: Luciferase reporter assay with MDM2-3′UTR; assay type: cell-based, human
Source text: The 3′-UTR region of MDM2 containing target site sequences complementary to the seed sequence of miR-18b were cloned downstream of the luciferase gene in the pMIR-REPORT luciferase vector (Ambion, Cambridge Mass.), and the resultant vectors were named MDM2-3′UTR. Mutated 3′UTR sequences of MDM2 complementary to miR-18b were cloned in the same vector and the resultant vectors named MDM2-Mut 3′UTR. For reporter assays, cells were transiently transfected with wild-type or mutant reporter plasmid and miR-18b. Firefly luciferase activities were measured by using the Dual Luciferase Assay (Promega, Madison, Wis.) 48 hr after transfection and the results were normalized with Renilla luciferase. Each reporter plasmid was transfected at least three times (on different days) and each sample was assayed in triplicate.

[15] = 1205-Lu co-transfection with empty vector or MDM2-expressing vector
[16] = stable expression of miR-18b, vs control vector
[17] = transient transfection, vs cont.miR
[18] = 1205-Lu stably overexpressing miR-18b
[19] = transient miR-18b overexpression

## N.N.[Cl][Pt][Cl] [cisplatin]
miR-18b expression; 1205-Lu cells, 2 nM cisplatin for 48 hr, vs vehicle-treated cells
  miR-18b expression: significantly upregulated
miR-18b expression; 1205-Lu cells, 2 nM cisplatin for 48 hr, vs vehicle-treated cells, listed as Cisplatin
  miR-18b expression: induced expression of miR-18b

## miR-18b: microRNA, mature miR-18b-5p UAAGGUGCAUCUAGUGCAGUUAG (SEQ ID NO:1); transfected or stably expressed from pEP-hsa-mir-18b expression vector (listed as Homo sapiens)
[1]
  cell survival, MDM2 and p53 expression levels: no effect
LOX human melanoma cells [2]
  S-phase: significant decrease
1205-Lu cells [3]; subcutaneous inoculation into nude mice, followed for 24 days, vs control vector cells
  tumor growth in vivo: significantly suppressed
1205-Lu cells [3]; subcutaneous tumors, vs control tumors
  MDM2 at the protein level in tumors: suppressed
1205-Lu melanoma cells [4]
  invasiveness: significantly suppressed
1205-Lu cells [5]; [15]
  melanoma cell survival: suppressed melanoma cell survival
1205-Lu cells [5]; 1205-Lu transfected with miR-18b vs Neg-miR, treated with dabrafenib, 48 hrs
  cell proliferation with BRAF inhibitor: sensitized melanoma cell lines to BRAF specific inhibitor; also recorded: additive effect
1205-Lu cells [5]; melanoma cells treated with miR-18b
  sensitivity to cisplatin cytotoxicity: enhanced sensitivity
1205-Lu cells [5]; [16]
  cell proliferation: significantly suppressed
1205-Lu cells [5]; [17]
  cell proliferation over time: significantly decreased
1205-Lu cells [6]; stable expression of miR-18b
  apoptotic index: significant increase
1205-Lu cells [6]; transient overexpression, cont.miR 2.87%, p<0.01
  apoptosis: 11.30%
LOX human melanoma cells [7]
  apoptosis: increase
1205-Lu cells [8]; [16]
  cells in S-phase: significant decreases
1205-Lu cells [8]; transient overexpression, cont.miR 15.5%, p<0.02
  cells in S-phase: 8.05%
[9]; [15]
  gene expression (MDM2, p53 pathway): suppression of MDM2, activation of the p53 pathway
[9]; [18]
  MDM2 expression: significantly downregulated
  expression of p53 and PUMA: concomitant increase
[9]; following miR-18b overexpression
  p14ARF expression: unchanged
[9]; [19]
  MDM2 at the protein level: significantly suppressed
  anti-apoptotic genes BCL2 and BCL-XL: downregulation
  pro-apoptotic genes p53 and PUMA: concomitant upregulation
[10]
  epithelial biomarker E-cadherin: significant upregulation
  mesenchymal markers vimentin, N-cadherin and slug: reduced
1205-Lu cells [11]; [16]
  colony formation: significant decreases
1205-Lu cells [11]; [17]
  colony formation ability: low colony formation ability
1205-Lu melanoma cells [12]
  migratory ability: significantly suppressed
Chromatin modifications
  active chromatin modifications (acetylated histones H3, H4 and H3 di-methylated lysine 4): enrichment
  repressive chromatin modifications (2H3K9 and 3H3K9): suppression
LOX human melanoma cells [13]
  cell proliferation: significant decrease
LOX human melanoma cells [14]
  colony formation: significant decrease
3′UTR of MDM2; MDM2-Mut 3′UTR, 1205-Lu and LOX cells
  reporter activity, mutant 3′UTR: no effect
3′UTR of MDM2; transient co-transfection into 1205-Lu and LOX cells, 48 hr, vs control vector
  reporter expression, MDM2-3′UTR construct: significant decrease

## Nc1ncn([C@H]2C[C@H](O)[C@@H](CO)O2)c(=O)n1 [5AZA, 5-AZA-2′-deoxycytidine]
miR-18b expression; five melanoma cell lines (C8161.9, LOX, 1205-Lu, DO4, WM278), 5AZA 5 μM, vs vehicle
  miR-18b expression: significant upregulation
